IC50 data for four compounds are collected here from ChEMBL document CHEMBL1133923, “Evolution of anti-HIV drug candidates. Part 3: Diarylpyrimidine (DAPY) analogues” (Bioorg Med Chem Lett, 2001).

Test in all cases: microbe, parasite or virus in culture
Assay [1] concerns Human immunodeficiency virus 1. The following applies: Human immunodeficiency virus 1, MT4.
Description: Inhibitory activity against 103N strain of HIV-I in MT-4 cells
Assay [2] has as its system Human immunodeficiency virus 1. The note with it: Human immunodeficiency virus 1, MT4. This is another data set of the same source.
Description: Inhibitory activity against 181C strain of HIV-I in MT-4 cells
Assay [3] relates to Human immunodeficiency virus 1. The assay is classed as functional, organism-based, MT4.
Description: Inhibitory activity against 103N strain and 181C strain of HIV-I in MT-4 cells
Assay [4] deals with Human immunodeficiency virus 1. The following applies: Human immunodeficiency virus 1, MT4. This is another data set of the same source.
Description: Inhibitory activity against 100I strain and 103N strain of HIV-I in MT-4 cells
The test system of assay [5] is Human immunodeficiency virus 1. The note with it: Human immunodeficiency virus 1, MT4. This is another data set of the same source.
Description: Inhibitory activity against LAI strain of HIV-I in MT-4 cells
Assay [6] deals with Human immunodeficiency virus 1. The note with it: Human immunodeficiency virus 1, MT4. The source holds these as a separate data set.
Description: Inhibitory activity against 100I strain of HIV-I in MT-4 cells
Assay [7] relates to Human immunodeficiency virus 1. The following applies: Human immunodeficiency virus 1, MT4. The source holds these as a separate data set.
Description: Inhibitory activity against 188L strain of HIV-I in MT-4 cells
The mark [8] stands for this setting: Human immunodeficiency virus 1, MT4.

As usually defined, the IC50 is the concentration that inhibits the measured activity by half. Low values mean greater potency in that assay, high ones weaker potency in that assay.

Turning to `Cc1cc(C#N)cc(C)c1Nc1ccnc(Nc2ccc(C#N)cc2)n1`, the IC50 amounted to 1.9 nM in assay [1]; 7.1 nM in assay [2]; 37 nM in assay [3] (mt4); 1090 nM in assay [4]; 0.4 nM in assay [5]; 34 nM in assay [6]. In addition, the 50% inhibitory concentration (IC50) in assay [7] was determined as 7.8 nM.
With `Cc1cc(C#N)cc(C)c1Oc1ccnc(Nc2ccc(C#N)cc2)n1`, the IC50 in assay [1] was 2.7 nM; in assay [2], 37 nM; in assay [3] (mt4), 94 nM; in assay [4], 798 nM; in assay [5], 1.1 nM; in assay [6], 73 nM. The same compound came in with an IC50 in assay [7] of 19 nM.
For `Cc1cc(C)c(Nc2ccnc(Nc3ccc(C#N)cc3)n2)c(C)c1` [DAPIVIRINE], the IC50 is 4.3 nM in assay [1]; 7.5 nM in assay [2]; 44 nM in assay [3] (setting [8]); greater than 10000 nM in assay [4]; 1 nM in assay [5]; 18 nM in assay [6]. The compound also had an IC50 in assay [7] of 48 nM.
As to `Cc1cc(C#N)cc(C)c1Oc1nc(Nc2ccc(C#N)cc2)nc(N)c1Br` [ETRAVIRINE], the IC50 worked out at 1.2 nM in assay [1]; 7 nM in assay [2]; 4.3 nM in assay [3] (setting [8]); 19 nM in assay [4]; 1.4 nM in assay [5]; 3.3 nM in assay [6]. Moreover, 4.6 nM corresponded to half-maximal inhibition in assay [7] (IC50).
